# Assay results from PubChem BioAssay (NCI).
#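 Grown in 96-well plates, cells were treated for 48 hours with each compound at five concentrations. Insufficient inhibition: endpoint recorded as highest concentration tested. Abbreviation: GI50, concentration required for 50% inhibition of growth. The concentration for full growth arrest is given as TGI.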
# Key:
# Assay in all cases: NCI anticancer screen, dose series, 48 h
# XF 498 CNS = system: XF 498 CNS
# SNB-78 CNS = system: SNB-78 CNS
# HOP-18 NSCLC = system: HOP-18 NSCLC
# DMS 114 small cell lung = system: DMS 114 small cell lung
# MCF7 breast = system: MCF7 breast
# NCI/ADR-RES ovarian = system: NCI/ADR-RES ovarian
# KM20L2 colon = system: KM20L2 colon
# LXFL 529 NSCLC = system: LXFL 529 NSCLC
# SR leukemia = system: SR leukemia
# MDA-MB-231 breast = system: MDA-MB-231 breast
# T-47D breast = system: T-47D breast
# PC-3 prostate = system: PC-3 prostate
SMILES,TGI (XF 498 CNS) [µM],TGI (SNB-78 CNS) [µM],TGI (HOP-18 NSCLC) [µM],TGI (DMS 114 small cell lung) [µM],TGI (MCF7 breast) [µM],TGI (NCI/ADR-RES ovarian) [µM],TGI (KM20L2 colon) [µM],TGI (LXFL 529 NSCLC) [µM],TGI (SR leukemia) [µM],TGI (MDA-MB-231 breast) [µM],TGI (T-47D breast) [µM],TGI (PC-3 prostate) [µM],other results
O=C(O)/C=C/c1cnc[nH]1,> 500,> 500,> 500,> 500,> 500,> 500,> 500,–,–,–,–,–,GI50 (SNB-78 CNS): > 500 µM; GI50 (KM20L2 colon): > 500 µM
COc1ccc2c(c1)O[C@H]1c3ccc(O)cc3OC[C@@H]21,46.4,> 100,> 100,–,–,–,> 100,80.3,43.7,–,–,–,–
COc1cccc(C2C(C(=O)O)=C(CO)Oc3cc4c(cc32)OCO4)c1 (stereo not given),91.2,> 100,> 100,> 100,–,–,> 100,> 100,–,–,–,–,–
CCSc1nc(N2CCCCC2)c2cn[nH]c2n1,–,–,–,–,71.7,> 100,–,–,–,> 100,62.4,79.1,GI50 (MCF7 breast): 22.8 µM; GI50 (NCI/ADR-RES ovarian): 92.5 µM; GI50 (MDA-MB-231 breast): 11.6 µM; GI50 (T-47D breast): 16 µM; GI50 (PC-3 prostate): 20.7 µM
CCOC(=O)C1(C(=O)OCC)CSC1,–,–,–,–,> 100,> 100,–,–,> 100,> 100,> 100,> 100,–
CC(=O)NC(CCCCNC(=O)OC(C)(C)C)C(=O)O (stereo not given),–,–,–,–,> 100,> 100,–,–,–,> 100,> 100,> 100,–
COC(=O)C1=COC2OC3/C(=C\c4ccc(O)c(OC)c4)C(=O)OC34C=CC1C24 (stereo not given),18.4,39.4,–,39.5,–,–,33.6,27.1,> 100,–,–,–,–
O=C(N1CCC(CN=c2cc3n(-c4ccc(Cl)cc4)c4ccccc4nc-3cc2Nc2ccc(Cl)cc2)CC1)N1CC1,–,–,–,–,–,–,–,–,2.25,–,5.91,3.38,GI50 (SR leukemia): 0.337 µM; GI50 (T-47D breast): 2.41 µM; GI50 (PC-3 prostate): 1.63 µM
CCOc1ccc(N=Nc2ccc3oc(=O)c(/C(C)=N\NC(=O)CC(=O)Nc4ccc(Cl)cc4)cc3c2)cc1,4.31,> 100,–,42,–,–,> 100,27,25,–,–,–,–
